Values joined by “and” are separate entries in the source; they are usually repeats but may differ in a detail not shown here. Equal entries are not always repeated. After the bases stand the sugars from the 5' end (letter, count) and the backbone: PS all phosphorothioate, else s phosphorothioate and o phosphodiester by linkage. Methylation of C is not given here. k = constrained ethyl (cEt); d = 2'-deoxy (DNA)
target: IRF4; conditions: ASO, SK-MEL-28, 4 µM

Sequence | target mRNA inhibition
TTACAGCATCTAAGGC (sugars k3 d10 k3, PS) | 21%
GAGCTGCTTGGCTCCT (sugars k3 d10 k3, PS) | 19%
AGAAAACCCCCCTCTC (sugars k3 d10 k3, PS) | 23%
CTGTAGTATGAGAAAC (sugars k3 d10 k3, PS) | 45%
AGTTCATGTAAAGTCT (sugars k3 d10 k3, PS) | 56% and 61%
CACCAGGTTAAACAGG (sugars k3 d10 k3, PS) | -8%
CCATTGGAGGAGGGTT (sugars k3 d10 k3, PS) | 32%
GTCCAGGTTGCTGGCG (sugars k3 d10 k3, PS) | 53%
AATAAGCAGAAACAGC (sugars k3 d10 k3, PS) | -1%
CCGAAAAGACTGGAGT (sugars k3 d10 k3, PS) | 57%
TGCGAGTACCCAAGAC (sugars k3 d10 k3, PS) | 59%
CCCCAAGGCTACAGGC (sugars k3 d10 k3, PS) | 25%
CCCGAATAGGACCCCT (sugars k3 d10 k3, PS) | 40%
AGAAGTACGAGCACAT (sugars k3 d10 k3, PS) | 44%
TCAAATCGACTGCCAC (sugars k3 d10 k3, PS) | 54%
AAAGGCCAAATTGCAA (sugars k3 d10 k3, PS) | 52%
GCTGTCGATCTGGTCG (sugars k4 d8 k4, PS) | 6%
AGCCAGAGCAGTAAAC (sugars k3 d10 k3, PS) | 15%
CATCAATGATGGCAGT (sugars k3 d10 k3, PS) | 50%

Sequence | target mRNA inhibition
TCAAAGTCATTGCTCT (sugars k4 d8 k4, PS) | 57%
GGTCATACCCTGGATC (sugars k3 d10 k3, PS) | 49%
CTTTTTTGGCTCCCTC (sugars k3 d10 k3, PS) | 36%
ACGAAAACAGCCGCCG (sugars k3 d10 k3, PS) | 14%
GAACATCTCAGATACA (sugars k3 d10 k3, PS) | 42%
GAAGCACTGGCATTGA (sugars k3 d10 k3, PS) | 55%
AAAAGAGCCGCCACAT (sugars k3 d10 k3, PS) | 16%
TGCAAACGACAAGTGG (sugars k3 d10 k3, PS) | 21%
CGTCAAGGAGGCCTGG (sugars k3 d10 k3, PS) | 43%
GTGGCATCATGTAGTT (sugars k3 d10 k3, PS) | 27%
ATCTATAAGATGTATA (sugars k3 d10 k3, PS) | -1%
ATTTATGCCCTCGCTC (sugars k3 d10 k3, PS) | 26%
AGCATCTAAGGCAAGC (sugars k3 d10 k3, PS) | 57%
CTACCTCAGTTTGTGA (sugars k3 d10 k3, PS) | 41%
TGGCCTTCCTGGCGGA (sugars k3 d10 k3, PS) | 9%
ACCCAAGACTCCCAGA (sugars k3 d10 k3, PS) | 45%
TAGGTGCTTGTTGAAT (sugars k3 d10 k3, PS) | 50%
CAGGACCCGGCTCCCG (sugars k3 d10 k3, PS) | 14%
CGCAGAGCCAGTAGGG (sugars k3 d10 k3, PS) | 67%

Sequence | target mRNA inhibition
CTCACACACAGGATGT (sugars k3 d10 k3, PS) | 18%
ATGTAGGGATACAGCA (sugars k3 d10 k3, PS) | 74%
TCCTGAGACAAGTGCT (sugars k3 d10 k3, PS) | 55%
GAACAGGAAGCCACTA (sugars k3 d10 k3, PS) | 23%
GAGTATTTCATAGCTA (sugars k3 d10 k3, PS) | 71%
TCCCATCCAAGAGTAG (sugars k3 d10 k3, PS) | 33%
GCCGGCCTGGCCCTTC (sugars k3 d10 k3, PS) | -14%
GGAGATCCGGCAGCCC (sugars k3 d10 k3, PS) | 23%
AGCTTGATAAAGGCTG (sugars k3 d10 k3, PS) | 36%
CGGGAGAGCGGAGGCG (sugars k3 d10 k3, PS) | 0%
GCGGAGCATCAACAAA (sugars k3 d10 k3, PS) | 30%
GGCACAGACATACCTA (sugars k3 d10 k3, PS) | 48%
CGCGCAAAGGGCAAGG (sugars k3 d10 k3, PS) | 34%
TCCCAACCCGCTTCTC (sugars k3 d10 k3, PS) | 14%
CGTTCTCCCACACCAG (sugars k4 d8 k4, PS) | -1%
CCGGGTGTGGCTGATC (sugars k3 d10 k3, PS) | 16%
GCAAGTTTTCTCTGTC (sugars k3 d10 k3, PS) | 56%
CACTGTTAAAGCAGCA (sugars k3 d10 k3, PS) | 81%
GTTAAAGGAGTGCAGG (sugars k3 d10 k3, PS) | -14%

same assay, conditions: ASO, SK-MEL-28, 5 µM

Sequence | target mRNA inhibition
CGCAGAGCCAGTAGGG (sugars k3 d10 k3, PS) | 56% and 59% and 77%

same assay, conditions: ASO, SK-MEL-28, 15 µM

Sequence | target mRNA inhibition
CGCAGAGCCAGTAGGG (sugars k3 d10 k3, PS) | 81% and 82% and 91%

Reference: the OligoGym collection
